The results in this text go back to patent US8372865B2, “Dihydropyridone amides as P2X7 modulators” (Roche Palo Alto LLC, priority 2008, dated 2013).

The assay has as its target T1, P2X7 receptor (UniProt Q99572).
T1 sequence (Q99572 1-595): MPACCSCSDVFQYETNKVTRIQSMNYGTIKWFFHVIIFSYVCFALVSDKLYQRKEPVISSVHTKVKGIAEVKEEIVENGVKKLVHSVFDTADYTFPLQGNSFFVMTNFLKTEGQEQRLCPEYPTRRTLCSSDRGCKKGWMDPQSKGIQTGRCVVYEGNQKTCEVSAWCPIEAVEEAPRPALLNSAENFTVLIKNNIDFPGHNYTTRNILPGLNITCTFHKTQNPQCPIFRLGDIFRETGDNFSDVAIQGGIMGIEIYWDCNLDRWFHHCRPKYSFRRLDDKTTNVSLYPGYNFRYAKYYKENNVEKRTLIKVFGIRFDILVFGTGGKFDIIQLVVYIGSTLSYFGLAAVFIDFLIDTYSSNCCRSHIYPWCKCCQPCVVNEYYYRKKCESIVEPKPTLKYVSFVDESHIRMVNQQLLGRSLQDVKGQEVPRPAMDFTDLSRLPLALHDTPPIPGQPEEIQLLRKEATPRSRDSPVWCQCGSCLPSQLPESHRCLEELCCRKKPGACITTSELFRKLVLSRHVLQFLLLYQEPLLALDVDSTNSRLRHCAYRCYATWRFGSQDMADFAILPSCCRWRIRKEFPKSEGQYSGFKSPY
In words: pKi of Table 1 (assay not stated). In kind it is cell-based. The procedure:
Intracellular Calcium Flux (FLIPR) Assay
Stock solutions of compounds were prepared from powders as a 10 mM DMSO stock solution. These solutions were stored at RT during the two week period of these experiments to prevent freeze-thaw of the DMSO stocks. The DMSO stocks were added to the appropriate assay buffer at a concentration of 10 μM, and then diluted serially to the final concentrations that were tested. […] The aqueous solutions of compounds as well as ATP (Sigma A7699) and BzATP (Sigma B6396) were prepared fresh for each day of experiment.
1321N1 cells stably expressing the full length human P2X7 gene (1321N1-hP2X7) and HEK293 cells stably expressing the full length rat P2X7 gene (HEK293-rP2X7) were obtained from the Roche Cell Culture Facility. 1321N1-hP2X7 cells were grown in Dulbecco's Modified Eagle's Medium (DMEM) high glucose supplemented with 10% FBS and 250 μg/mL G418. HEK293-rP2X7 cells were grown in DMEM/F-12 supplemented with 10% FBS, 1 mM CaCl2, 2 mM MgCl2, 2 mM L-Glutamine and 500 μg/ml G418. Cells were split such that they never became>70% confluent.
On the day prior to the experiment, 1321N1-hP2X7 or HEK293-rP2X7 cells were released into suspension with calcium-free PBS+Versene and washed by centrifugation with calcium-free PBS to remove the Versene. Cells were resuspended in growth medium at a density of 2.5×10^5 cells/mL and seeded into black walled, clear bottom 96 well plates (50,000 cells/well) approximately 18 hr prior to intracellular calcium flux experiments.
On the day of the experiment, plates were washed with FLIPR buffer (calcium- and magnesium-free Hank's Balanced Salt Solution (HBSS) supplemented with 10 mM Hepes, 2.5 mM probenecid and 2 mM calcium chloride) using a BIO-TEK 96 channel plate washer and incubated with […] fluo-3 dye at 37° C. for one hr. The dye was then removed by plate washing and the cells were allowed to equilibrate for 20 min at room temperature with antagonist or vehicle (FLIPR buffer). Agonist (100 μM BzATP final concentration for hP2X7; 5 μM BzATP final concentration or rP2X7) was added online with the FLIPR and fluorescence measurements made at 1 sec intervals for 60 sec followed by 3 sec intervals for a further 4 min (5 min total). A final addition of 5 μM ionomycin was made and the maximal BzATP-evoked fluorescence normalized to the maximal ionomycin-evoked fluorescence.

`Cc1ccc2c(NC(=O)C3=CNC(=O)C[C@H]3c3ccc(F)cc3)c(C)ccc2n1` [Compound 49, (S)-4-(4-Fluoro-phenyl)-6-oxo-1,4,5,6-tetrahydro-pyridine-3-carboxylic acid (2,6-dimethyl-quinolin-5-yl)-amide] yielded a pKi of 7.8567. For `CN1C=C(C(=O)Nc2cccc3c(=O)n(CCO)ccc23)[C@H](c2ccc(F)cc2)CC1=O` [Compound 50, (S)-4-(4-Fluoro-phenyl)-1-methyl-6-oxo-1,4,5,6-tetrahydro-pyridine-3-carboxylic acid [2-(2-hydroxy-ethyl)-1-oxo-1,2-dihydro-isoquinolin-5-yl]-amide] the value was 7.04; for `Cc1ccc2c(=O)n(C)ccc2c1NC(=O)C1=CNC(=O)C[C@H]1c1ccc(F)cc1` [Compound 51, (S)-4-(4-Fluoro-phenyl)-6-oxo-1,4,5,6-tetrahydro-pyridine-3-carboxylic acid (2,6-dimethyl-1-oxo-1,2-dihydro-isoquinolin-5-yl)-amide], 7.4375; for `Cc1ccc2c(=O)n(C)ccc2c1NC(=O)C1=CN(C)C(=O)C[C@H]1c1ccc(F)cc1` [Compound 52, (S)-4-(4-Fluoro-phenyl)-1-methyl-6-oxo-1,4,5,6-tetrahydro-pyridine-3-carboxylic acid (2,6-dimethyl-1-oxo-1,2-dihydro-isoquinolin-5-yl)-amide], 7.45. Then `Cc1ccc2c(C)nccc2c1NC(=O)C1=CN(C)C(=O)C[C@H]1c1ccc(F)cc1` [Compound 53, (S)-4-(4-Fluoro-phenyl)-1-methyl-6-oxo-1,4,5,6-tetrahydro-pyridine-3-carboxylic acid (1,6-dimethyl-isoquinolin-5-yl)-amide], with 6.045; and `Cn1ccc2c(NC(=O)C3=CNC(=O)C[C@H]3c3ccc(F)cc3)cccc2c1=O` [Compound 58, (S)-4-(4-Fluoro-phenyl)-6-oxo-1,4,5,6-tetrahydro-pyridine-3-carboxylic acid (2-methyl-1-oxo-1,2-dihydro-isoquinolin-5-yl)-amide], with 7.56.

What is called pKi is the negative decadic logarithm of the Ki, by convention in mol/L. A lower pKi goes with a high Ki.
